ChEMBL document CHEMBL1137920, “Design and synthesis of 1-(4-benzoylphenyl)imidazole derivatives as new potent 20-HETE synthase inhibitors” (Bioorg Med Chem Lett, 2004)

Assay: Inhibitory activity against 20-Hydroxy-5,8,11,14-eicosatetraenoic acid synthase from arachidonic acid in rat renal microsome

IC50	SMILES
> 5 µM	C#CCCCCCCCCCCCCCCCC(=O)O
2 µM	O=C(O)CCCCCCCCCC=C(Br)Br
7.5 µM	C#CCCCCCCCCCOS(=O)(=O)O
2 µM	CS(=O)(=O)NC(=O)CCCCCCCCCC=C(Br)Br
0.0352 µM	CCCCc1ccc(/N=C/NO)c(C)c1
0.31 µM	O=C(c1ccccc1)c1ccc(-n2ccnc2)cc1

Assay: Inhibitory activity against 20-Hydroxy-5,8,11,14-eicosatetraenoic acid synthase from arachidonic acid in human renal microsome

IC50	SMILES
0.0079 µM	Cc1cc(C(=O)c2ccc(-n3ccnc3)cc2)ccc1OCCCCCC(=O)O
0.073 µM	Cc1cc(C(=O)c2ccc(-n3ccnc3)cc2)ccc1OCCCCCCCCCC(=O)O
0.012 µM	Cc1cc(C(=O)c2ccc(-n3ccnc3)cc2)ccc1OCCCCC(=O)O
0.022 µM	Cc1cc(C(=O)c2ccc(-n3ccnc3)cc2)ccc1OCCCCCCC(=O)O
0.044 µM	Cc1cc(C(=O)c2ccc(-n3ccnc3)cc2)ccc1OCCCCCCCC(=O)O
8.38 µM	Cc1ccc(OCCCCC(=O)O)c(C(=O)c2ccc(-n3ccnc3)cc2)c1
> 10 µM	Cc1ccc(OCCCC(=O)O)c(C(=O)c2ccc(-n3ccnc3)cc2)c1
2.46 µM	Cc1ccc(OCCCCCCC(=O)O)c(C(=O)c2ccc(-n3ccnc3)cc2)c1
6.74 µM	Cc1ccc(OCCCCCCCCCC(=O)O)c(C(=O)c2ccc(-n3ccnc3)cc2)c1
4.8 µM	Cc1ccc(OCCCCCCCC(=O)O)c(C(=O)c2ccc(-n3ccnc3)cc2)c1
3.29 µM	Cc1ccc(OCCCCCC(=O)O)c(C(=O)c2ccc(-n3ccnc3)cc2)c1

Assay: Inhibitory activity against 20-Hydroxy-5,8,11,14-eicosatetraenoic acid synthase from arachidonic acid in human renal microsome

IC50	SMILES
0.013 µM	Cc1cc(C(=O)c2ccc(-n3ccnc3)cc2)ccc1OCCCC(=O)O
